Experimental findings from US11292801B2, “Calpain modulators and therapeutic uses thereof” (Blade Therapeutics, Inc., priority 2016, dated 2022) are described below.

Like-named read-outs stand apart in the source and are kept apart here.

For data set [1] the following is noted: rcm bond.
Data set [2] has as its target T1, Human Calpain 1/NS1 (Homo sapiens, UniProt P07384).
T1 sequence (P07384 1-714): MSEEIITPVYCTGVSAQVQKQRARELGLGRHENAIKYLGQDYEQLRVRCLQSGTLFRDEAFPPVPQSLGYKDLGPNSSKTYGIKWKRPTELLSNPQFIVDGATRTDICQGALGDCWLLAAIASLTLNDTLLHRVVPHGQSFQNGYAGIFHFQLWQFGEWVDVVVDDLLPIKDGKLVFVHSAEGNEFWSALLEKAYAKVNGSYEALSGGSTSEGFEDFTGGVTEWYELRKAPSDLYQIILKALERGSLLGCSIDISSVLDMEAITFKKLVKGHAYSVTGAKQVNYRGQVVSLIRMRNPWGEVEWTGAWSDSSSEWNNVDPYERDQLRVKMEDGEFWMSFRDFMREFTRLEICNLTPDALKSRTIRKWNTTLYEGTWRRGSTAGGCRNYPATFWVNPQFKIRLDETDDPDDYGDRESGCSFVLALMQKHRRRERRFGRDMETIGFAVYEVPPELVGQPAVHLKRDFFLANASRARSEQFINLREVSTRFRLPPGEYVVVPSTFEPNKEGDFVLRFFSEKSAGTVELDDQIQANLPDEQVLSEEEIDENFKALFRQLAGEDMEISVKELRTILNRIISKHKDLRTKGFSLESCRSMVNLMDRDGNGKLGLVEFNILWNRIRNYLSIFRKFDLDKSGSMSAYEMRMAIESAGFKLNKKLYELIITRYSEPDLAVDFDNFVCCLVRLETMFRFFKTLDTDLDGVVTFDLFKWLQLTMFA
T1 sequence (P04632 1-268 partner): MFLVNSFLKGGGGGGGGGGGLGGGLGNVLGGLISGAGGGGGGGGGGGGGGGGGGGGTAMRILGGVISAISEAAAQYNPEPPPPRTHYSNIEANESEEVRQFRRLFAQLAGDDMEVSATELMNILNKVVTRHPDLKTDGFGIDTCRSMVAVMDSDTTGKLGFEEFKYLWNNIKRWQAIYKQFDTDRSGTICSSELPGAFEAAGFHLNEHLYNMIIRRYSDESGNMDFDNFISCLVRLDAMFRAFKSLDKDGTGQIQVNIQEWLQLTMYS
Put plainly: Biochemical inhibition of calpain 1, continuous fluorescence (FRET substrate) assay. As to conditions: mean, read-out: Human Calpain 1/NS1 IC50 (nM)_MEAN. In short, it runs like this:
(§1)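 Continuous FRET assay with 5-FAM/QXL520 peptide substrate in 50 mM Tris pH ~7.5, 100 mM NaCl, 1 mM DTT. Enzyme preincubated with inhibitor at 25C; reaction started with substrate plus CaCl2, read at 490/520 nm for 10 min. Rates from slopes over 1-5 min, IC50 from 4-parameter logistic fit.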

The target of data set [3] is T2, Human Calpain 2/NS1 (Homo sapiens, UniProt P17655).
T2 sequence (P17655 1-700): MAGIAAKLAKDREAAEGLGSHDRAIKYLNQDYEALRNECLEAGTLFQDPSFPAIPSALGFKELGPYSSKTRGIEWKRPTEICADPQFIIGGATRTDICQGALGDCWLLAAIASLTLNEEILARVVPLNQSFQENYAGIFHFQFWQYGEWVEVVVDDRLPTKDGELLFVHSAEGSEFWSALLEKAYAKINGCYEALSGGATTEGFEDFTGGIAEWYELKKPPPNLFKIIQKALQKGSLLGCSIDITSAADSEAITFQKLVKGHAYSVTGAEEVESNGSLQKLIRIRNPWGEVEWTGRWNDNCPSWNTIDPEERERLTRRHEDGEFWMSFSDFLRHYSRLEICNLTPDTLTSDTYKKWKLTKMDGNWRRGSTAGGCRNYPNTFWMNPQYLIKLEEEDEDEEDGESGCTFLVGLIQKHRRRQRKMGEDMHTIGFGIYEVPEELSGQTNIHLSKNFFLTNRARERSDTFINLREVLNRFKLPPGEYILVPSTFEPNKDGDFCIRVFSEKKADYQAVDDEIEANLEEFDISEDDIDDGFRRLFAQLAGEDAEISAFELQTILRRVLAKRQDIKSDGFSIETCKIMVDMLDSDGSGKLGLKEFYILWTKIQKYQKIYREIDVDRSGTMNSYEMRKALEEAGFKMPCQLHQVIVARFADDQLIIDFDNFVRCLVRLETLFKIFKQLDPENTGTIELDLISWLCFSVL
T2 sequence (P04632 1-268 partner): T1 sequence (P04632 1-268 partner)
Kind of data set: Biochemical inhibition of calpain 2, continuous fluorescence (FRET substrate) assay. As to conditions: mean, read-out: Human Calpain 2/NS1 IC50 (nM)_MEAN. Summed up:
as §1

The target in data set [4] is T3, Human Calpain 9/NS1 (Homo sapiens, UniProt O14815).
T3 sequence (O14815 1-690): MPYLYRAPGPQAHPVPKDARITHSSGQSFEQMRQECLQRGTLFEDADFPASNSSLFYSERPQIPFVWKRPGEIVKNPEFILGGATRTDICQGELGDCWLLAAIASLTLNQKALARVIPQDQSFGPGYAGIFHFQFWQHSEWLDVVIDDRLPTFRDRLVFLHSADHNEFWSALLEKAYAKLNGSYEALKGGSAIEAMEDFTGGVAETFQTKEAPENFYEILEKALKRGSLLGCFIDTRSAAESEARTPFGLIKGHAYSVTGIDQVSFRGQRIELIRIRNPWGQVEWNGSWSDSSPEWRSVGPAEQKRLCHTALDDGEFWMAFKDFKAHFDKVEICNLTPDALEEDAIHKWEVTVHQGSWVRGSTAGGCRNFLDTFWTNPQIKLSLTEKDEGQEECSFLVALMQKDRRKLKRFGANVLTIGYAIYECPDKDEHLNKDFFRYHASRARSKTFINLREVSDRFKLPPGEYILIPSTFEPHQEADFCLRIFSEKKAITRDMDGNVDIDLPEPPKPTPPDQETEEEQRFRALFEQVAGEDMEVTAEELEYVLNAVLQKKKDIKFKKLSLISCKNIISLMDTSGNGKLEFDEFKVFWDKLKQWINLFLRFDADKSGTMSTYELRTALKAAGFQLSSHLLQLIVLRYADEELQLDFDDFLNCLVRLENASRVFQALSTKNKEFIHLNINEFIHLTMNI
T3 sequence (P04632 1-268 partner): T1 sequence (P04632 1-268 partner)
Put plainly: Biochemical inhibition of calpain 9, continuous fluorescence (FRET substrate) assay. As to conditions: mean, read-out: Human Calpain 9/NS1 IC50 (nM)_MEAN. In short, it runs like this: as §1

In data set [1] (from C=CCCCCCc1ncccc1C(=O)N[C@@H](CC=C)C(=O)N(C)OC, Grubbs catalyst 2nd generation, DCE, 9.93 mM, 95.0 °C, 48.0 h), `CON(C)C(=O)[C@@H]1CC=CCCCCCc2ncccc2C(=O)N1` came in with a ring closure, yield of all isomers of 65.1%.

Consider `COC(=O)[C@@H]1Cc2ccc(cc2)CC=CCc2cccc(c2)-c2ccn(n2)-c2ncccc2C(=O)N1`, for which the ring closure, yield of all isomers in data set [1] (from C=CCc1ccc(C[C@H](NC(=O)c2cccnc2-n2ccc(-c3cccc(CC=C)c3)n2)C(=O)OC)cc1, Hoveyda-Grubbs catalyst 1st generation, DCE, 4.94 mM, 90.0 °C, 64.0 h) was 43.6%.

The molecule `COC(=O)[C@@H]1Cc2ccc(cc2)CC=CCc2ccc3nn(cc3c2)-c2ncccc2C(=O)N1` returned a ring closure, yield of all isomers in data set [1] (from C=CCc1ccc(C[C@H](NC(=O)c2cccnc2-n2cc3cc(CC=C)ccc3n2)C(=O)OC)cc1, Zhan catalyst-1B, DCE, 3.09 mM, 90.0 °C, 14.0 h) of 19.4%.

In data set [1] (from C=CCCCCCc1ccccc1C(=O)N[C@@H](CC=C)C(=O)OCC, Grubbs 2nd generation catalyst, DCM, 8.31 mM, 50.0 °C, 14.0 h), `CCOC(=O)[C@@H]1CC=CCCCCCc2ccccc2C(=O)N1` came in with a ring closure, yield of all isomers of 18.1%.

On to `CON(C)C(=O)[C@@H]1CC=CCOCCOCc2ccccc2C(=O)N1`, for which the ring closure, yield of all isomers is 86.7% in data set [1] (from C=CCOCCOCc1ccccc1C(=O)N[C@@H](CC=C)C(=O)N(C)OC, Grubbs 2nd generation catalyst, DCE, 6.64 mM, 80.0 °C, 10.0 h) and 91.3% in data set [1] (from C=CCOCCOCc1ccccc1C(=O)N[C@@H](CC=C)C(=O)N(C)OC, Grubbs II, 1,2-dichloroethane, 6.64 mM, 80.0 °C, 10.0 h).

For `O=C[C@@H]1CCCCCCOc2ccnc(n2)-c2ccccc2C(=O)N1` [Compound 133, (S)-3-oxo-12-oxa-4-aza-1(2,4)-pyrimidina-2(1,2)-benzenacyclododecaphane-5-carbaldehyde], the IC50 in data set [2], in data set [3] and in data set [4] was under 3000 nM in each case.

In the case of `O=C[C@@H]1CCCCOCCOCc2ccccc2C(=O)N1` [Compound 43, (S)-12-Oxo-1,3,4,6,7,8,9,10,11,12-decahydrobenzo[f][1,4]dioxa[9]aza-cyclotetradecine-10-carbaldehyde], the IC50 in data set [2] is over 10000 nM; in data set [3] it was under 3000 nM; in data set [4], under 3000 nM.

With `Cc1cccc(C)c1NC(=O)C(=O)[C@@H]1CCCCOCCOCc2ccccc2C(=O)N1` [Compound 54, (S)—N-(2,6-dimethylphenyl)-2-oxo-2-(12-oxo-1,3,4,6,7,8,9,10,11,12-decahydrobenzo[f][1,4]dioxa[9]azacyclotetradecin-10-yl)acetamide], the IC50 in data set [2], in data set [3] and in data set [4] was over 10000 nM throughout.

On to `CCOC(=O)CCNC(=O)C(=O)[C@@H]1C/C=C/COCCOCc2ccccc2C(=O)N1` [Compound 63, Ethyl (S,E)-3-(2-oxo-2-(12-oxo-1,3,4,6,9,10,11,12-octahydrobenzo[f][1,4]dioxa[9]azacyclotetradecin-10-yl)acetamido)propanoate], for which the IC50 in data set [2], in data set [3] and in data set [4] was over 10000 nM throughout.

For `CCNC(=O)C(=O)[C@@H]1C/C=C/CCCCCCc2ccccc2C(=O)N1` [Compound 17, (S,E)-N-ethyl-2-oxo-2-(1-oxo-1,2,3,4,7,8,9,10,11,12-decahydrobenzo[c][1]azacyclotetradecin-3-yl)acetamide], the IC50 in data set [2], in data set [3] and in data set [4] was over 10000 nM throughout.

`O=C[C@@H]1C/C=C/CCCCCCCc2ccccc2C(=O)N1` [Compound 23, (S,E)-1-Oxo-2,3,4,7,8,9,10,11,12,13-decahydro-1h-benzo[c][1]aza-cyclopentadecine-3-carbaldehyde]: the IC50 in data set [2], in data set [3] and in data set [4] was under 3000 nM throughout.

In the case of `Cc1cc(C)cc(CNC(=O)C(=O)C2CCCCOCCOCc3ccccc3C(=O)N2)c1` (stereo not drawn) [Compound 111, N-(3,5-dimethylbenzyl)-2-oxo-2-(12-oxo-1,3,4,6,7,8,9,10,11,12-decahydrobenzo[f][1,4]dioxa[9]azacyclotetradecin-10-yl)acetamide], the IC50 is over 10000 nM in data set [2], 3000 to 10000 nM in data set [3] and under 3000 nM in data set [4].

On to `O=C[C@@H]1C/C=C/COCCOCc2ccccc2C(=O)N1` [Compound 2, (S,E)-12-Oxo-1,3,4,6,9,10,11,12-octahydrobenzo[f][1,4]dioxa[9]azacyclotetradecine-10-carbaldehyde], for which the figures for the IC50 in data set [2], in data set [3] and in data set [4] were over 10000 nM, over 10000 nM and 3000 to 10000 nM, respectively.

On to `NC(=O)C(=O)[C@@H]1CCCCCOc2ccc(F)c(c2)-c2ccccc2C(=O)N1` [Compound 148, (S)-2-(2^6-fluoro-11-oxo-3-oxa-10-aza-1(1,2),2(1,3)-dibenzena-cycloundecaphane-9-yl)-2-oxoacetamide], for which the IC50 in data set [2], in data set [3] and in data set [4] was under 3000 nM each time.

Consider `O=C(NC1(c2cccnc2)CC1)C(=O)C1CCCCOCCOCc2ccccc2C(=O)N1` (stereo not drawn) [Compound 125, 2-Oxo-2-(12-oxo-1,3,4,6,7,8,9,10,11,12-decahydrobenzo[f][1,4]dioxa[9]aza-cyclotetradecin-10-yl)-N-(1-(pyridin-3-yl)cyclopropyl)acetamide], for which the IC50 in data set [2], in data set [3] and in data set [4] was over 10000 nM each time.

For `COc1cccc(CN(C)C(=O)C(=O)C2CCCCOCCOCc3ccccc3C(=O)N2)c1` (stereo not drawn) [Compound 116, N-(3-methoxybenzyl)-N-methyl-2-oxo-2-(12-oxo-1,3,4,6,7,8,9,10,11,12-decahydrobenzo[f][1,4]dioxa[9]azacyclotetradecin-10-yl)acetamide], the IC50 in data set [2], in data set [3] and in data set [4] was over 10000 nM each time.

Consider `Cn1cc2c(n1)-c1cccc(c1)OCCCCC[C@@H](C(=O)C(N)=O)NC2=O` [Compound 142, (S)-2-(1′-methyl-11-oxo-1^1H-3-oxa-10-aza-1(3,4)-pyrazola-2(1,3)-benzenacycloundecaphane-9-yl)-2-oxoacetamide], for which the results for the IC50 in data set [2], in data set [3] and in data set [4] were over 10000 nM, over 10000 nM and under 3000 nM, respectively.
